Experimental data taken from US9056835B2, “LPA2 receptor-specific benzoic acid derivatives” (University of Tennessee Research Foundation, priority 2012, dated 2015).

Assays:
[1] = system: vector- and LPA2-transduced MEF cells; assay: Serum withdrawal-induced apoptosis (caspase activity, DNA fragmentation); type: cell-based, mouse; conditions: for reduction of apoptotic indicators: vector-transduced MEF
Method: Experiments were performed on vector- and LPA2-transduced MEF cells. To measure caspase 3, 7, 8, or 9 activity and DNA fragmentation, cells were plated in 48-well plates (2×10^4 cells/well). To detect PARP-1 cleavage and Bax translocation, 1.5×10^6 cells were plated in 10-cm dishes and cultured overnight in full growth medium. The next morning, the growth medium was replaced by serum-starvation medium and cells were pretreated for 1 h with LPA (1-10 μM), OTP (1-10 μM), GRI977143 (1-10 μM), or vehicle. Caspase activity, DNA fragmentation, PARP-1 cleavage, and Bax translocation were measured 5 h after incubation with 1.7 μM Adriamycin or 24 h after serum withdrawal.
Caspase-Glow® 3/7, Caspase-Glow® 8 and Caspase-Glow® 9 reagents were purchased from Promega (Madison, Wis.) and used according to the manufacturer's instructions. Briefly, cells were lysed by adding 50 μl of lysis reagent per well, followed by shaking for 30 min at room temperature. […] lysate were transferred to a 96-well white-wall plate, and luminescence was measured using a BioTek® (Winooski, Vt.) plate reader.
Apoptotically-challenged cells were washed twice with PBS, and a quantitative DNA fragmentation assay was carried out using a Cell Death Detection ELISA PLUS kit (Roche Diagnostics, Penzberg, Germany) and normalized to protein concentration using the BCA Protein Assay Kit (Thermo Fisher Scientific, Inc.; Rockford, Ill.) as described previously (Valentine et al., 2010). Aliquots of nuclei-free cell lysate were placed in streptavidin-coated wells and incubated with anti-histone-biotin antibody and anti-DNA peroxidase-conjugated antibody for 2 h at room temperature. After the incubation, the sample was removed, and the wells were washed and incubated with 100 μl 2,2′-azino-di[3-ethylbenzthiazolin-sulfonate substrate at room temperature before the absorbance was read at 405 nm. Results were expressed as absorbance at 405 nm/min/mg protein as detailed in our previous report (Ray et al., Mdm2 inhibition induces apoptosis in p53 deficient human colon cancer cells by activating p73- and E2F1-mediated expression of PUMA and Siva-1. Apoptosis (2011) 16(1): 35-44).

[2] = biological target: T1, LPA3 (Homo sapiens, UniProt Q9UBY5); assay: LPA receptor-mediated Ca2+ mobilization assay, LPA3; type: cell-based; conditions: for inhibition of LPA3 Ca2+ response: 10 μM, ~EC75 LPA 18:1; for LPA3 Imax (%): inhibition by 10 μM compound of ~EC75 LPA 18:1 Ca2+ response
T1 construct: expressed in transfected cells
T1 sequence (Q9UBY5 1-353): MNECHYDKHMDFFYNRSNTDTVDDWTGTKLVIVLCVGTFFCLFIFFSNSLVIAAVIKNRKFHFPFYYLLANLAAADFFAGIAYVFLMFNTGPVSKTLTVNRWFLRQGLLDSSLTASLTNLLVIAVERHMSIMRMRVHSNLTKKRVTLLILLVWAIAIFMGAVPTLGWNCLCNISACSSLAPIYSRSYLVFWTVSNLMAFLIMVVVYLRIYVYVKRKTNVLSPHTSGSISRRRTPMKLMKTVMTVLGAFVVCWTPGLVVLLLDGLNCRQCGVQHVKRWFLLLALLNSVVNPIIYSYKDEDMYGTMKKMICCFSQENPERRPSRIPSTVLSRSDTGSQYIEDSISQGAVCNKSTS
Method: Similarity searches were performed separately using each fingerprint to quantitate similarity. Hits meeting the 80% similarity threshold from each search were ranked based on the Tanimoto coefficient measure of similarity to a target molecule NSC12404, and the top 75 unique hits from each fingerprint search were selected for further analysis. The 225 compounds selected for further analysis were clustered based on Tanimoto coefficients calculated using Molecular ACCess System-key fingerprints (MACCS keys) and evaluated using the diversity subset function implemented in MOE. This selected a diverse subset of 27 compounds for biological evaluation by choosing the middle compounds in each cluster. These 27 compounds were tested in Ca^2+ mobilization assays at a concentration of 10 μM using stable cell lines individually expressing LPA2 and also in vector-transfected control cells. Hits activating LPA2 were further tested using cells expressing the other established and putative LPA GPCRs. […] They arbitrarily selected GRI977143 for further characterization in cell-based assays.
J Biol Chem (2009) 284(25): 17304-17319). […] The cells were loaded with Fura-2-acetoxymethyl esther (Fura-2/AM) in Krebs buffer containing 0.01% pluronic acid for 30 min and rinsed with Krebs buffer before measuring Ca^2+ mobilization. The ratio of peak emissions at 510 nm after 2 min of ligand addition was determined for excitation wavelengths of 340 nm/380 nm. All samples were run in quadruplicate. […] The half maximally effective concentration (EC50), and inhibitory constant (Ki) values were calculated by fitting a sigmoid function to dose-response data points using KaleidaGraph software (version 4.1, Synergy Software; […]).
Mouse embryonic fibroblast (MEF) cells were isolated from E13.5 LPA1&2 double knockout (DKO) embryos. MEFs were transduced with empty vector or LPA2-containing lentiviruses and selected with 1.5 μg/ml puromycin. Cells were maintained in Dulbecco's modified Eagle medium (DMEM) supplemented with 10% (V/V) fetal bovine serum (FBS), 2 mM L-glutamine, 100 U/mL penicillin, and 100 μg/mL streptomycin. Serum-free medium contained 0.1% (W/V) BSA in DMEM. The rat intestinal epithelial cell line 6 (IEC-6) was obtained from the American Type Culture Collection (Rockville, Md.) at passage 13; passages 16-21 were used in all experiments. IEC-6 cells were maintained in a humidified 37° C. incubator in an atmosphere of 90% air and 10% CO2. Growth medium consisted of DMEM supplemented with 5% heat inactivated FBS, 10 μg/mL insulin, and 50 μg/mL gentamycin. The composition of the serum-starvation medium was the same as that of the full growth medium except that it contained no FBS. The McArdle rat hepatoma cell line (RH7777) stably expressing LPA2 receptors was a gift from Dr. Fumikazu Okajima (Gunma University, Maebashi, Japan). RH7777 cells stably expressing LPA1 or LPA3 receptors were generated in-house and had been characterized earlier. Wild type and LPA receptor (LPAR) stably transfected RH7777 cells were grown in DMEM supplemented with 10% FBS and 2 mM L-glutamine in the presence of 250 μg/ml G418. Chinese hamster ovary (CHO) cells stably expressing either vector or LPA4 receptor were a kind gift from Dr. Takao Shimizu (Tokyo University; Tokyo, Japan). Cells were cultured in Ham's F12 medium containing 10% FBS, 2 mM L-glutamine, and 350 μg/ml G418. Rat neuroblastoma cells (B103) were transduced with the lentivirus harboring wild type of FLAG-LPA5 and selected with puromycin to establish the stable cell lines. The stable cells were maintained in DMEM supplemented with 10% FBS and 0.4 μg/ml puromycin. GPR87- and P2Y10-expressing CHO cells and vector-transfected control cells were a gift from Dr. Norihisha Fujita (Ritsumeikan University; Shiga, Japan).

Compound | reduction of apoptotic indicators [1] | inhibition of LPA3 Ca2+ response [2] | LPA3 Imax (%) [2] | other results
O=C(O)c1ccccc1SCCCN1C(=O)c2cccc3cccc(c23)C1=O [GRI977143] | failed to cause any reduction | inhibited LPA3 | 55% | DNA fragmentation ([1]; LPA2-transduced MEF, 10 μM): attenuated DNA fragmentation; reduction of caspase 3, 7, 8, and 9 activation ([1]; LPA2-transduced MEF, 10 μM): highly effective
octadecenyl thiophosphate [OTP] | protected the vector-transduced MEF cells too | – | – | EC50 ([2]; agonist, Ca2+ mobilization): 297 nM
O=C(O)c1cc(Cl)c(Cl)cc1C(=O)Nc1ccc2c(c1)C(=O)c1ccccc1-2 [Compound H2L5547924] | – | – | 66% | –
CCCCCCCC/C=C\CCCCCCCC(=O)OC[C@@H](O)COP(=O)(O)O [LPA 18:1, Lysophosphatidic acid (18:1)] | protected the vector-transduced MEF cells too | – | – | –
O=C(O)c1ccccc1C(=O)Nc1ccc2c(c1)C(=O)c1ccccc1-2 [NSC12404] | – | inhibited LPA3 | 61% | –
O=C(O)c1ccccc1C(=O)Nc1ccc2c(c1)C(=O)c1ccccc1C2=O [Compound H2L5828102] | – | fully inhibited | 100% | Ki ([2]; antagonist, Ca2+ mobilization, read-out: LPA3 K): 1500 nM
